Laboratory results taken from article PMC7898648, “Synthesis and Evaluation of Non‐Hydrolyzable Phospho‐Lysine Peptide Mimics” (Chemistry (Weinheim an Der Bergstrasse, Germany), 2020).

Tests used:
[1] = NMR titration for pKa determination of model peptides; assay type: physicochemical; conditions: 1 mM peptide in 40 mM KCl (H2O + 10 % D2O); for pKa2 (from 31P chemical shift vs pH, inflection point of sigmoidal fit): pH 2 to 11, 278 K, 600 MHz, 8a/8b: mono-protonated phosphoryl oxygen to di-anion, 8c: complete deprotonation of the phosphoryl oxygens
Experimental: Next, we aimed to evaluate the charge distribution of peptides 8 a–c at physiological pH. […] An elegant technique for the pK a determination is NMR titration since this non‐invasive analytical technique enables accurate measurements at desired temperatures at a given pH. Our experimental set up was inspired by the NMR titration conducted by Gamcsik et al. on phosphoramidic acid and other phosphoramides. ^[23] Samples were prepared at a 1 mM concentration in 40 mM KCl (water + 10 % deuterium oxide) and kept at low temperature to minimize P−N bond hydrolysis for 8 c. The pH of each sample was adjusted before measurement and checked again afterwards. Proton (^1H), phosphorous (^31P) 1D as well as ^1H‐^31P‐heteronuclear multiple bond […] (HMBC) NMR spectra were recorded from pH 2 to pH 11 on a 600 MHz (^1H frequency) spectrometer at 278 K and subsequently used for calculations of pK a values (Figure 2 A, exemplified for 8 a, see Figure S3 for 8 b). In order to do so, the chemical shift of ^31P was plotted against the pH values and resulting curves fitted with sigmoidal functions wherein pK a values were obtained from the inflection points (Figure 2 B). We further evaluated the data by plotting and fitting of the ^1H chemical shifts – ζ‐protons for phosphonate 8 a and ϵ‐protons for phosphate 8 b and phosphoramidate 8 c (Figure S4).
Figure 2 A. NMR titration experiments of peptide 8 a. Conditions: NMR spectra of a solution containing 1 mM peptide in 40 mM KCl (H2O+10 % D2O) were recorded at distinct pH values on a 600 MHz (^1H frequency) spectrometer at 278 K. Shown are the overlay of 1D‐^31P spectra at different pH values and extracted correlation signals between ϵ‐protons and phosphorous from ^1H,^31P‐HMBC experiments. B. Graphical visualization of ^31P NMR measurements for phosphonate 8 a (red), phosphate 8 b (blue) and phosphoramidate 8 c (black).

[2] = potentiometrically detected; cited from earlier work
[3] = target: T1, alkaline phosphatase (ALP) (Bos taurus, UniProt P19111); assay: Enzymatic stability against alkaline phosphatase (released inorganic phosphate, EnzCheck kit); assay type: in vitro ADME; conditions: 1 mM substrate, 50 mM Tris, 1 mM MgCl2, 1 mM ZnCl2, pH 8.2, 30 °C, 0.05 U ALP, 2 h; photometric read-out of released Pi at 360 nm (SI: 100 μM, pH 7.8, 90 min); blank without enzyme subtracted
T1 construct: purchased Sigma-Aldrich (aliquots provided by Prof. Fiedler)
T1 sequence (P19111 20-506 limits assumed): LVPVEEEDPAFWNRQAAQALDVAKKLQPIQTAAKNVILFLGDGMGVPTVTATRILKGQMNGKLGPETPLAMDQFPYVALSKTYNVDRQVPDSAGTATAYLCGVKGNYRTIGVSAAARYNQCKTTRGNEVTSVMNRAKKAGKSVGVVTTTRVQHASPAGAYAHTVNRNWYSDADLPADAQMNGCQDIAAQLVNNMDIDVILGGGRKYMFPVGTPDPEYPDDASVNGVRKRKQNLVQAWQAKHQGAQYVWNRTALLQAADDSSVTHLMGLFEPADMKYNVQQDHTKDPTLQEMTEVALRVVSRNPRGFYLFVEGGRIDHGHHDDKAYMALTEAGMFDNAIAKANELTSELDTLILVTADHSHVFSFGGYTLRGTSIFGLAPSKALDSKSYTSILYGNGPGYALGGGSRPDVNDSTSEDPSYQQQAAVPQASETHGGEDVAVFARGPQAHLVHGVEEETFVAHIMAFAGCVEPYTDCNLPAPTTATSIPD
Experimental: With the three peptides 8 a–c in hand, we tested their enzymatic stability against the promiscuous alkaline phosphatase (ALP). The substrates 8 a–c were tested for stability towards ALP under optimized conditions. Briefly, 1 mM substrate was dissolved in 50 mM Tris, 1 mM MgCl2, 1 mM ZnCl2, pH 8.2, at 30 °C and was incubated with 0.05 U ALP for 2 h. and the amount of released inorganic phosphate (Pi) was determined via photometric read‐out. […] Furthermore, treatment of 8 b with ALP yielded in a Pi release, which indicated susceptibility of the phosphate analogue towards phosphatases.
Treatment of peptides 8a-c with alkaline phosphatase (ALP). […]
enzymatically hydrolyzed substrate, calculated by subtraction of detected inorganic phosphate (Pi) in blank reactions (without enzyme) from the reactions with enzyme ad de d . He r e i n , w e observed dephosphorylation for both peptides 8b and 8c, which indicated susceptibility of the phosphate analogue towards phosphatases. […]
Reactions were run for 90 min in total, UV -absorbance was measured every 10 min. The enzymatic hydrolysis yield [E] was determined by substraction of [BG]w/oBL from […]
UV/Vis spectra and absorbance values were determined either on a V -630 spectrophotometer at r.t. or a V-550 UV/Vis spectrophotometer equipped with an ETC-505T temperature controller at 20 °C (both Jasco, Tokyo, Japan). […]

Structure (SMILES) | pKa2 (from 31P chemical shift vs pH, inflection point of sigmoidal fit) [1] | pKa3 (deprotonation of the amine) ([1]; 31P shift vs pH, 278 K) | pKa for the protonation on nitrogen [2] | pKa for the protonation on one phosphoryl oxygen [2] | stability towards ALP (enzymatic hydrolysis, Pi release) [3]
CC(=O)N[C@@H](Cc1ccc(O)cc1)C(=O)N[C@@H](CCCCNP(=O)(O)O)C(=O)NCC(N)=O [8c, ^AcTyrpLysGly^CONH2] | 2.88±0.30 | 9.64±0.07 |  |  | 
CC(=O)N[C@@H](Cc1ccc(O)cc1)C(=O)N[C@@H](CCSCCP(=O)(O)O)C(=O)NCC(N)=O [8a] | 7.08±0.03 |  |  |  | 
CCCCNP(=O)(O)O [N‐(n‐butyl)phosphoramidate] |  |  | 9.9 | 2.9 | 
CC(=O)N[C@@H](Cc1ccc(O)cc1)C(=O)N[C@@H](CCCCOP(=O)(O)O)C(=O)NCC(N)=O [8b] | 6.54±0.13 |  |  |  | dephosphorylation
